The test system of the test is HMPV A2 TN/94-49. The test is described as follows: HMPV antiviral assay: LLC-MK2 cells, ATP-Lite readout. Format: cell-based. To be noted: LLC-MK2, 168 h, MOI 0.005, 7 days incubation. The method, then:
In vitro HMPV antiviral activity was evaluated using the clinical isolate A2 strain TN 94-49 and LLC-MK2 cells (ATCC #CCL-7), an immortalized kidney epithelial cell line from Macaca mulatta. Compounds were resuspended in dimethyl sulfoxide (DMSO) at 10 mM, serially diluted and added to a 384-well source plate. Subsequently, the compounds were diluted and transferred onto 384-well assay plates using the Echo-650 automated liquid handling system (Beckman Coulter, Indiana). The test compounds were assessed in duplicate at a top concentration of 2 μM followed by 2.5-fold serial dilutions to give a total of 10 concentration points. DMSO control wells were also included on the assay plates and were either infected or not, acting as positive and negative controls. A2 TN 94-49 virus infections were performed in-suspension with LLC-MK2 cells. The cells were washed twice with PBS and removed from the cell-culture flask with 0.25% trypsin-EDTA (Thermo Fisher Scientific, MA). The trypsin-EDTA was inactivated by resuspending in 2% fetal bovine serum (FBS) and OptiMEM (ThermoFisher Scientific, MA) containing 1% penicillin-streptomycin. Cells were pelleted by centrifuging for 5 minutes at 800 rpm, the supernatant was removed, and cells were re-suspended and washed in PBS plus 100 μg/mL CaCl2). This step was performed twice. Cells were then re-suspended in serum-free (SF)-OptiMEM containing 4 μg/mL TPCK-Trypsin (Sigma Aldrich, MO), 1% penicillin-streptomycin (ThermoFisher Scientific, MA) and 100 μg/mL CaCl2). Cells were counted and seeded at a density of 5,000 cells/well, 12.5 μL/well. Virus infections were done at a multiplicity of infection (MOI) of 0.005 with 12.5 μL added per well. Virus infections were performed in infection media which contained SF-OptiMEM, 100 μg/mL CaCl2) and 1% penicillin-streptomycin. HMPV viral stocks are suspended in infection media+5% glycerol, thus an equal volume of infection media+5% glycerol was added to uninfected wells to equalize the final % glycerol across all wells of the assay plate. The final concentration of TPCK-trypsin was 2 μg/mL. The assay plates were incubated at 37° C., 5% CO2 for 7 days. After 7 days incubation, 12.5 μL of ATP-Lite (PerkinElmer, MA) was added to each well and the raw luminescence values were determined using the Envision 2104 (Perkin Elmer, MA). The average of the raw luminescence values for the cells and virus only positive control wells was subtracted from all conditions tested and the percent cell health was determined by dividing these values by the average of the cells only negative control wells. EC50 values were then calculated by non-linear regression using a four-parameter curve logistic equation. The curve fit model employed was XLFit Dose Response One Site Model 200: y=(A+(B/(1+((x/C)^D)))), where A is the minimum y value, B is the maximum y value, C is the log EC50 value, and D is the slope factor. […] EC50 ranges are as follows: A<1 μM; B>1 μM.

Structures are written as SMILES.

Broadly, the EC50 is the concentration giving half of the maximal effect. Read a low EC50 as an effect from little substance. Turning to `COc1cc(C(=O)NC[C@](O)(c2cc(C3(O)COC3)c(F)c(-c3cc(Cl)c(F)cc3F)n2)C2CC2)cc2cn(C(F)F)nc12` [Example 169], the EC50 is > 1000 nM. For the compound `COc1cc(C(=O)NC[C@@](O)(c2ccccc2)c2cc(C(C)(C)O)c(F)c(-c3cc(Cl)c(F)cc3F)n2)cc2cn(C3(F)CC3)nc12` [Example 61], the EC50 was < 1000 nM. For the compound `COc1cc(C(=O)NC[C@](O)(c2cc(C(C)(C)O)c(F)c(-c3cc(Cl)c(F)cc3F)n2)C2CC2)cc2cc(C3CC3)nn12` [Example 56], the EC50 is < 1000 nM. Next, `CCC(O)(CC)c1cc([C@@](O)(CNC(=O)c2cc(OC)c3nn(C(F)F)cc3c2)c2ccccc2)nc(-c2cc(Cl)c(F)cc2F)c1F` [Example 117]: > 1000 nM; `CNC(=O)c1cc([C@@](O)(CNC(=O)c2cc(OC)c3nn(C4CC4)cc3c2)c2ccccc2)nc(-c2cc(Cl)c(F)cc2F)c1F` [Example 192]: > 1000 nM; `CC(C)(O)c1cc([C@@](O)(CNC(=O)c2cc(Cl)c3nn(C4CC4)cc3c2)c2ccccc2)nc(-c2cccc(Cl)c2Cl)c1Cl` [Example 141]: > 1000 nM. The value for `COc1cc(C(=O)NC[C@@](O)(c2ccccc2)c2cc(C(C)(C)C(N)=O)c(F)c(-c3cc(Cl)c(F)cc3F)n2)cc2cn(C(F)F)nc12` [Example 161] was > 1000 nM; that for `CC(C)(C(N)=O)c1cc([C@@](O)(CNC(=O)c2cc(Cl)c3nn(C4CC4)cc3c2)c2ccccc2)nc(-c2cc(Cl)c(F)cc2F)c1F` [Example 162] was < 1000 nM.

As for `COc1cc(C(=O)NC[C@@](O)(c2cccc(F)c2)c2cc(C(C)(C)O)c(F)c(-c3ccc(F)c(Cl)c3Cl)n2)cc2cc(C3CC3)nn12` [Example 106], the EC50 is > 1000 nM. The value for `COc1cc(C(=O)NC[C@](O)(c2ccc(F)c(-c3cc(Cl)c(F)cc3F)n2)C2CC2)cc2cn(C3(F)CC3)nc12` [Example 173] was > 1000 nM. With `COc1cc(C(=O)NC[C@@](O)(c2cccc(F)c2)c2cc(C(C)(C)O)c(F)c(-c3cccc(Cl)c3Cl)n2)cc2cn(C3CC3)nc12` [Example 98], the EC50 is < 1000 nM. Next, `COc1cc(C(=O)NC[C@@](O)(c2ccccc2)c2cc(C(C)(C)O)c(Cl)c(-c3ccc4c(c3Cl)OC(F)(F)O4)n2)cc2cc(C3CC3)nn12` [Example 155]: < 1000 nM; `COc1cc(C(=O)NC[C@@](O)(c2ccccc2)c2cc(C(C)(C)O)c(Cl)c(-c3ccc4c(c3Cl)OC(F)(F)O4)n2)cc2cn(C(F)F)nc12` [Example 138]: < 1000 nM; `CC(C)(O)c1cc([C@@](O)(CNC(=O)c2cc(Cl)c3nn(C4CC4)cc3c2)c2ccccc2)nc(-c2ccc(F)c(Cl)c2Cl)c1F` [Example 68]: < 1000 nM. For the compound `COc1cc(C(=O)NC[C@](O)(c2ccc(F)c(-c3cc(Cl)c(F)cc3F)n2)C2CC2)cc2cc(Cl)c(C)nc12` [Example 176], the EC50 was > 1000 nM. Regarding `COc1cc(C(=O)NC[C@@](O)(c2ccccc2)c2cc(C(C)(C)F)c(F)c(-c3cc(Cl)c(F)cc3F)n2)cc2cn(C(F)F)nc12` [Example 182], the EC50 is > 1000 nM. Turning to `COc1cc(C(=O)NC[C@@](O)(c2ccccc2)c2cc(C(C)(C)O)c(F)c(-c3ccc4c(c3Cl)OC(F)(F)O4)n2)cc2cn(C(F)F)nc12` [Example 76], the EC50 is < 1000 nM.

For `COc1cc(C(=O)NC[C@@](O)(c2ccccc2)c2cc(C(C)(C)O)c(F)c(-c3ccc(F)c(Cl)c3F)n2)cc2cn(C3(F)CC3)nc12` [Example 124], the EC50 was < 1000 nM. On to `CC(C)(O)c1cc([C@@](O)(CNC(=O)c2cc(Cl)c3nn(C4CC4)cc3c2)c2cccc(F)c2)nc(-c2ccc3c(c2Cl)OC(F)(F)O3)c1F` [Example 110], for which the EC50 was > 1000 nM. For `COc1cc(C(=O)NC[C@@](O)(c2ccccc2)c2cc(C(C)(C)O)c(F)c(-c3ccc(F)cc3F)n2)cc2cn(C3CC3)nc12` [Example 87], the EC50 is > 1000 nM. Take `CC(C)(O)c1cc([C@@](O)(CNC(=O)c2cc(OC3CC3)c3nn(C4CC4)cc3c2)c2ccccc2)nc(-c2ccc(F)c(Cl)c2F)c1F` [Example 125]: the EC50 is < 1000 nM. The value for `CC(C)(O)c1cc([C@@](O)(CNC(=O)c2cc(Cl)c3nn(C4CC4)cc3c2)c2cccc(F)c2)nc(-c2ccc(F)c(Cl)c2Cl)c1F` [Example 105] was < 1000 nM. Regarding `COc1cc(C(=O)NC[C@@](O)(c2ccccc2)c2nc(-c3cc(Cl)c(F)cc3F)c(F)c(C(C)(C)O)c2F)cc2cn(C(F)F)nc12` [Example 128], the EC50 is < 1000 nM. The value for `COc1cc(C(=O)NC[C@@](O)(c2ccccc2)c2cc(C(C)(C)O)c(Cl)c(-c3cccc(Cl)c3Cl)n2)cc2cn(C3CC3)nc12` [Example 140] was > 1000 nM; that for `COc1c(C(C)(C)O)cc([C@@](O)(CNC(=O)c2cc(OC)c3nn(C4CC4)cc3c2)C2CC2)nc1-c1cc(F)c(F)cc1F` (single isomer, unassigned) [Example 165] was > 1000 nM; that for `COc1cc(C(=O)NC[C@@](O)(c2cccc(F)c2)c2cc(C(C)(C)O)c(F)c(-c3cccc(Cl)c3Cl)n2)cc2cn(C(F)F)nc12` [Example 99] was < 1000 nM. Next, `COc1cc(C(=O)NC[C@](O)(c2cc(C(C)(C)O)c(F)c(-c3cc(Cl)c(F)cc3F)n2)c2cccs2)cc2cn(C(F)F)nc12` [Example 114]: < 1000 nM; `COc1cc(C(=O)NC[C@@](O)(c2cccc(F)c2)c2cc(C(C)(C)O)c(F)c(-c3cc(F)c(F)cc3F)n2)cc2cn(C(F)F)nc12` [Example 94]: < 1000 nM; `COc1cc(C(=O)NC[C@](O)(c2ccc(F)c(-c3cc(Cl)c(F)cc3F)n2)C2CC2)cc2cn(C(F)F)nc12` [Example 174]: > 1000 nM.

Take `[2H]C([2H])([2H])C(O)(c1cc([C@@](O)(CNC(=O)c2cc(OC)c3nn(C4CC4)cc3c2)C2CC2)nc(-c2cc(Cl)c(F)cc2F)c1F)C([2H])([2H])[2H]` [Example 186]: the EC50 was < 1000 nM.

As to `COc1cc(C(=O)NC[C@@](O)(c2cccc(F)c2)c2cc(C(C)(C)O)c(F)c(-c3ccc(F)c(Cl)c3Cl)n2)cc2cn(C3CC3)nc12` [Example 103], the EC50 was < 1000 nM. With `CC(C)(O)c1cc([C@@](O)(CNC(=O)c2cc(Cl)c3nn(C4CC4)cc3c2)c2ccccc2)nc(-c2cccc(Cl)c2Cl)c1F` [Example 82], the EC50 is < 1000 nM. Next, `CC(C)(O)c1cc([C@@](O)(CNC(=O)c2cc(Cl)c3nn(C4CC4)cc3c2)c2ccccc2)nc(-c2cc(Cl)c(F)cc2F)c1Cl` [Example 133]: > 1000 nM; `COc1cc(C(=O)NC[C@@](O)(c2cccc(F)c2)c2cc(C(C)(C)O)c(F)c(-c3ccc4c(c3Cl)OC(F)(F)O4)n2)cc2sc(C)nc12` [Example 108]: < 1000 nM; `COc1cc(C(=O)NC[C@@](O)(c2ccccc2)c2cc(C(C)(C)O)c(F)c(-c3ccc(F)c(Cl)c3Cl)n2)cc2cc(C3CC3)nn12` [Example 69]: < 1000 nM. The value for `CC(C)(O)c1cc([C@@](O)(CNC(=O)c2cc(Cl)c3nn(C4CC4)cc3c2)c2cccc(F)c2)nc(-c2cccc(Cl)c2Cl)c1F` [Example 100] was > 1000 nM; that for `COc1cc(C(=O)NC[C@@](O)(c2ccccc2)c2cc(C(C)(C)O)c(F)c(-c3cccc(Cl)c3Cl)n2)cc2sc(C)nc12` [Example 78] was < 1000 nM. As for `COc1cc(C(=O)NC[C@](O)(c2ccc(F)c(-c3cc(Cl)c(F)cc3F)n2)C2CC2)cc2cn(C3CC3)nc12` [Example 171], the EC50 was > 1000 nM. Consider `COc1cc(C(=O)NC[C@@](O)(c2ccccc2)c2cc(C(C)(C)O)cc(-c3ccc(F)c(Cl)c3Cl)n2)cc2cn(C(F)F)nc12` [Example 154], for which the EC50 was < 1000 nM. The value for `COc1cc(C(=O)NC[C@@](O)(c2ccccc2)c2nc(-c3cc(Cl)c(F)cc3F)c(F)c(C(C)(C)O)c2F)cc2sc(C)nc12` [Example 130] was < 1000 nM; that for `COc1cc(C(=O)NC[C@@](O)(c2ccccc2)c2cc(C(C)(C)O)c(Cl)c(-c3ccc4c(c3Cl)OC(F)(F)O4)n2)cc2sc(C)nc12` [Example 135] was > 1000 nM. With `COc1cc(C(=O)NC[C@@](O)(c2ccccc2)c2cc(C(C)(C)O)c(F)c(-c3cccc(Cl)c3Cl)n2)cc2cc(C3CC3)nn12` [Example 81], the EC50 is < 1000 nM.

For `COc1cc(C(=O)NC[C@@](O)(c2ccccc2)c2cc(C(C)(C)O)cc(-c3ccc(F)c(Cl)c3Cl)n2)cc2sc(C)nc12` [Example 151], the EC50 was < 1000 nM.

These data come from patent publication US12162857B2, “Antiviral compounds” (priority 2022, dated 2024).
